From ChEMBL document CHEMBL5096192, “Recent advancements in anti-leishmanial research: Synthetic strategies and structural activity relationships” (Eur J Med Chem, 2021)

What was measured:
[1] = biological target: Trypanothione reductase (Leishmania donovani) (UniProt P39050); assay: Inhibition of Leishmania donovani trypanothione reductase expressed in Escherichia coli BL21(DE3) using TS2 and NADPH as substrate at 100 uM preincubated for 5 mins followed by substrate addition by DTNB-reagent based spectrophotometric method
Chain of Trypanothione reductase (Leishmania donovani) (P39050 whole entry): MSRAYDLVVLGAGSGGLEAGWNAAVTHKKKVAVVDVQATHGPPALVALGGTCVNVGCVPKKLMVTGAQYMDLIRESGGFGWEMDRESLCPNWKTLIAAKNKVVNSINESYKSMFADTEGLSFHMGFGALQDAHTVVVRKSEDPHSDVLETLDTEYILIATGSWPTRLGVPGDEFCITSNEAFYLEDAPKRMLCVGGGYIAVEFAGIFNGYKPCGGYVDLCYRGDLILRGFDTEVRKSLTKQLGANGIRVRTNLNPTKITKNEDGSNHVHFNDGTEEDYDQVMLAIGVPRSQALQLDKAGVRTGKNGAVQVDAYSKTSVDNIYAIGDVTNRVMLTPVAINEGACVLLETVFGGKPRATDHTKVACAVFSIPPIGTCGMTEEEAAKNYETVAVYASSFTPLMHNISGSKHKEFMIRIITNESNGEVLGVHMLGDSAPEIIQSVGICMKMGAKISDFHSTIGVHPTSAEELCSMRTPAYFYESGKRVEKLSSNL

Leishmania donovani = assay: Antileishmanial activity against Leishmania donovani MHOM/IN/80/Dd8 intracellular amastigotes transfected with firefly luciferase gene infected in mouse J774.A1 cells assessed as parasite growth inhibition incubated for 96 hrs by Steady Glo reagent based luminescence assay; type: functional, organism-based; details: MHOM/IN/80/Dd8, J774.A1, 96 h
Leishmania infantum [2] = assay: Antileishmanial activity against Leishmania infantum MCAN/ES/92/BCN83 intracellular amastigotes infected in mouse J774 macrophages assessed as inhibition of parasite growth incubated for 48 hrs by fluorometric analysis; type: functional, organism-based; details: MCAN/ES/92/BCN83, J774, 48 h
Leishmania amazonensis [3] = assay: Antileishmanial activity against promastigote form of Leishmania amazonensis MHOM/BR/79/Maria assessed as inhibition of parasite growth measured after 48 hrs by resazurin staining based fluorescence analysis; type: functional, organism-based
Leishmania infantum [4] = assay: Antileishmanial activity against promastigote form of Leishmania infantum MCAN/ES/92/BCN83 assessed as inhibition of parasite growth measured after 48 hrs by resazurin staining based fluorescence analysis; type: functional, organism-based; details: MCAN/ES/92/BCN83, 48 h
Leishmania amazonensis [5] = assay: Antileishmanial activity against Leishmania amazonensis MHOM/BR/79/Maria intracellular amastigotes infected in mouse J774 macrophages assessed as inhibition of parasite growth incubated for 48 hrs by fluorometric analysis; type: functional, organism-based; details: J774, 48 h

In the case of `CCOC(=O)c1cc2c([nH]c3ccccc32)c(C(C(=O)NC(C)(C)C)N(Cc2ccc(CC)cc2)C(=O)c2ccccc2)n1` (stereo unspecified), the inhibition [1] is reported as 87% and the IC50 (Leishmania donovani) is reported as 2.43 µM.

With `FC(F)(F)c1nc2cc(Cl)c(Cl)cc2[nH]1` the IC50 (Leishmania infantum [2]) was 15.8 µM, the IC50 (Leishmania amazonensis [3]) was 4.11 µM and the IC50 (Leishmania infantum [4]) was 8.63 µM. It also gave an IC50 (Leishmania amazonensis [5]) of 9 µM.
